In article PMC5110648, “Coupled binding mechanism of three sodium ions and aspartate in the glutamate transporter homologue GltTk” (Nature Communications, 2016) one finds Apparent affinity data, which are given here for 1 compound.

This test has as its target T1, GltTk (Thermococcus kodakarensis, UniProt Q5JID0).
T1 construct: gene TK0986; C-terminally His8-tagged, pBAD24-derived plasmid, E. coli MC1061; purified in decyl maltoside; trimer
Briefly: isothermal titration calorimetry; crystal structure […] Å. To be noted: eight Na+ concentrations (apparent affinity strongly Na+-dependent); 10 mM Hepes KOH pH 8, 100 mM KCl, 0.15% DM, 25 °C; transport substrate site. The format is binding. On the technique in general: Isothermal titration calorimetry measures the heat released or taken up as one component is titrated into another.

T1 sequence (Q5JID0 entry or part of it): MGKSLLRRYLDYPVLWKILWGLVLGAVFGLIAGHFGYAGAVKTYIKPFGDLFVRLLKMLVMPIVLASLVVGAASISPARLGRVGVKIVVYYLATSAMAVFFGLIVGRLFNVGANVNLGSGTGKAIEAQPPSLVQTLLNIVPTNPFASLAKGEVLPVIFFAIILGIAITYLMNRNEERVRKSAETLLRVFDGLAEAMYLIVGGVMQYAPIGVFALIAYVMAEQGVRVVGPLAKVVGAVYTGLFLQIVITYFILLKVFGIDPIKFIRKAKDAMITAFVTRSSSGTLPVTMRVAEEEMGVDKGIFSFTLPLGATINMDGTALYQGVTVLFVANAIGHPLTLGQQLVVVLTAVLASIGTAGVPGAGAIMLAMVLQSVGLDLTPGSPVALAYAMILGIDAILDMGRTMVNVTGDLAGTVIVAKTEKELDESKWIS

`N[C@@H](CC(=O)O)C(=O)O` [L-aspartate]: the Apparent affinity entry is recorded as “Apparent affinity of GltTk for aspartate as a function of Na^+ concentration”.
